{"source": "paper PMC9960821", "about": "“Evaluation of Rhenium and Technetium-99m Complexes Bearing Quinazoline Derivatives as Potential EGFR Agents” (Molecules, 2023)", "key": {"EGFR": {"target": "T1, EGFR (Homo sapiens, UniProt P00533)", "T1 construct": "by immunoblotting in intact A431 cells that overexpress EGFR; endogenous in cells; host or cells: A431 (human epidermoid vulvar carcinoma)", "T1 sequence (P00533 25-1210)": "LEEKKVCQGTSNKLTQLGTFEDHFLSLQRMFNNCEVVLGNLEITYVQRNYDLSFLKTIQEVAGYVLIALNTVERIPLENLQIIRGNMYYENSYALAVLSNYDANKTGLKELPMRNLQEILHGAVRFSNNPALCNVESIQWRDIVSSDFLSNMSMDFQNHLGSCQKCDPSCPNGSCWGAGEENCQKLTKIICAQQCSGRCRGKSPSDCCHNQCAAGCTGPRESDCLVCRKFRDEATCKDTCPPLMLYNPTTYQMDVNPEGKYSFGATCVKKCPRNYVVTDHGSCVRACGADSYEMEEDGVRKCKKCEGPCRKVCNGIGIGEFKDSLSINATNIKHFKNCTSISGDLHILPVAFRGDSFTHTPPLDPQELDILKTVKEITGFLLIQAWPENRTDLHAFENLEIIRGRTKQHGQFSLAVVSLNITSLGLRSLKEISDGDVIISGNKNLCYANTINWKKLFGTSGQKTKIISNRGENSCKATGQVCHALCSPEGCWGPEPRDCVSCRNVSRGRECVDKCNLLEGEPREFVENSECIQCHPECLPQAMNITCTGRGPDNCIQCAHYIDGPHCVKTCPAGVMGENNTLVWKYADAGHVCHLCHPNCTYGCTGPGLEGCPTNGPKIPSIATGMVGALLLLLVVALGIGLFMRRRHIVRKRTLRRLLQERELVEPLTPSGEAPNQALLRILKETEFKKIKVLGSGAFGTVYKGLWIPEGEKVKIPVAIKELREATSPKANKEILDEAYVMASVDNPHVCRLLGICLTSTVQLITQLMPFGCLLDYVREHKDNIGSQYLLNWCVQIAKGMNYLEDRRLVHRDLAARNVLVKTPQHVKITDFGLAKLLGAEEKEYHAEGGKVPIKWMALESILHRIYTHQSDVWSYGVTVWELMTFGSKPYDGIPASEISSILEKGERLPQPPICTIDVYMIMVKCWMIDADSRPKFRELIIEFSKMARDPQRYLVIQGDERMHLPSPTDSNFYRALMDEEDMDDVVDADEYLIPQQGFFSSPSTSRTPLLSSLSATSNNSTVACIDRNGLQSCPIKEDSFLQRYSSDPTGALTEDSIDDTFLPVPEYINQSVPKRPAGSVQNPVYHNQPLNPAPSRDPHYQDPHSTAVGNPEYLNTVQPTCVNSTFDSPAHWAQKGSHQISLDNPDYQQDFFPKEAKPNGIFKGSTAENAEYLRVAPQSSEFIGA", "assay": "Inhibition of EGFR phosphorylation in intact A431 cells (immunoblotting)", "assay_type": "cell-based", "details": "2 h compound then EGF 20 ng/mL 5 min, Western blot", "procedure": "Complex 5a was evaluated for its potency to inhibit EGFR phosphorylation in various concentrations by immunoblotting in intact A431 cells that overexpress EGFR (Figure 3). In addition, the percentage of EGFR phosphorylation was calculated, and a dose-response curve was performed (Figure 4).\nCell line. The in vitro biological studies were established using the human epidermoid vulvar carcinoma A431 cell line, which overexpresses EGFR. Cells were available in our laboratory from previous studies. Cells were maintained in high glucose D-MEM medium with L-glutamine (PAA Laboratories GmbH, Pasching, Austria) and supplemented with 10% fetal bovine serum (PAA Laboratories GmbH) and penicillin/streptomycin (PAA Laboratories GmbH) 100 UI/100 μg per mL, in 5% CO2 incubator at 37 °C.\nThe inhibition of EGFR phosphorylation was studied as described in the literature. A431 cells (5 × 10^5 cells/well) were seeded in 6-well plates and incubated for 24 h. Then, the medium was replaced with fresh medium without fetal bovine serum. […] Protein band quantification was performed using Image-J software, and the percentage of EGFR phosphorylation inhibition was calculated using GraphPad Prism 9.0 software."}, "[1]": {"assay": "Cysteine and histidine challenge of 99mTc complexes (RP-HPLC)", "assay_type": "physicochemical", "procedure": "The stability of complexes 5b and 7b was studied in their reaction mixture and after isolation by HPLC for up to 24 h.\nCysteine and histidine challenge: Histidine (100 µL, 1 × 10^−2 M) or cysteine (100 µL, 1 × 10^−2 M) solution in 0.1 M PBS was mixed with 100 µL (50–120 MBq) of the RP-HPLC isolated ^99mTc complexes in 0.1 M PBS (800 µL). The mixtures were incubated at 37 °C for up to 24 h and analyzed by RP-HPLC at 1, 6, and 24 h intervals."}, "[2]": {"assay": "Biodistribution in healthy Swiss Albino mice after intravenous injection", "assay_type": "in vivo", "details": "i.v.", "procedure": "The pharmacokinetic profile of complexes 5b and 7b was evaluated in Swiss Albino healthy male mice at 5, 60, and 240 min post intravenous injection. Table 4 presents the results of the biodistribution studies expressed as % Injected Dose (ID)/g ± Standard Deviation (±SD). […] The high lipophilicity characterizing both complexes justifies the rapid hepatobiliary excretion, given the decreasing activity in the liver and the increasing amount of radioactivity in the intestines. Complex 5b presented faster clearance and elimination in the intestines at 60 min p.i. 34.05% of the radioactivity excreted, compared to 29.89% at 240 min p.i. of complex 7b. Radioactivity in the urine remained low in general, however, the lower logD7.4 value of complex 7b explains the relatively higher activity in the urines (7.88 ± 0.71%) as it is slightly more hydrophilic than 5b. Moreover, the low uptake in the brain indicates almost no blood-brain barrier penetration, although the complexes have favorable physicochemical characteristics.\nAll the biodistribution experiments were carried out in compliance with the national laws and European protocols (2010/63/EU) related to the conduct of animal experimentation. Nine healthy Swiss Albino mice (male, 30 ± 3 g), divided into three groups of three, were injected with the HPLC-purified 5b or 7b complex in saline with 10% EtOH (0.1 mL, ~75 kBq) through the tail vein. For each group, the animals were sacrificed by cardiectomy under slight ether anesthesia 5, 60, and 240 min after the injection. The organs of interest were excised, weighed, and counted in an automatic gamma counter. The bladder and excreted urine were not weighed. The stomach and intestines were not emptied of food contents prior to radioactivity measurements. The percentage of injected dose per organ (%ID/organ) was calculated by comparison of sample radioactivity to standard solutions containing 10% of the injected dose. The calculation for blood and muscle was based on measured activity, sample weight, and body composition data (considering that blood and muscle comprise 7 and 43% of body weight). The percentage of injected dose per gram (%ID/g) was calculated by dividing the %ID/organ by the weight of the organ or tissue."}}, "data": [{"compound": "O=C([O-])CN(CCCCCC(=O)Nc1ccc2ncnc(Nc3cccc(Br)c3)c2c1)Cc1ccccn1.[99Tc+].[C-]#[O+].[C-]#[O+].[C-]#[O+]", "note": "[Compound 5b, fac-[^99mTc(NNO)(CO)3]]", "values": [{"measurement": "IC50", "setting": "EGFR", "value": 26.1, "unit": "nM"}, {"measurement": "Stability after incubation with excess of histidine and cysteine", "setting": "[1]; 24 h, molar ratio 1/1000, HPLC", "value": "> 95", "unit": "%"}, {"measurement": "%RCP in Cysteine for 24 h", "setting": "[1]; excess cysteine, 37 °C", "value": "99 ± 1", "unit": "%"}, {"measurement": "%RCP in Histidine for 24 h", "setting": "[1]; excess histidine, 37 °C", "value": "99 ± 1", "unit": "%"}, {"measurement": "In vivo stability (low spleen and stomach radioactivity; no oxidation to pertechnetate/TcO2)", "setting": "[2]", "value": "stable in vivo"}, {"measurement": "Blood %Injected Dose/g", "setting": "[2]; 5 min", "value": "0.85 ± 0.23", "unit": "%Injected Dose/g"}, {"measurement": "Brain %Injected Dose/g", "setting": "[2]; 5 min", "value": "0.05 ± 0.02", "unit": "%Injected Dose/g"}, {"measurement": "Heart %Injected Dose/g", "setting": "[2]; 5 min", "value": "0.80 ± 0.12", "unit": "%Injected Dose/g"}, {"measurement": "Intestines %Injected Dose/g", "setting": "[2]; 5 min", "value": "9.22 ± 2.19", "unit": "%Injected Dose/g"}, {"measurement": "Kidneys %Injected Dose/g", "setting": "[2]; 5 min", "value": "8.49 ± 1.33", "unit": "%Injected Dose/g"}, {"measurement": "Liver %Injected Dose/g", "setting": "[2]; 5 min", "value": "27.68 ± 2.32", "unit": "%Injected Dose/g"}, {"measurement": "Lungs %Injected Dose/g", "setting": "[2]; 5 min", "value": "0.97 ± 0.20", "unit": "%Injected Dose/g"}, {"measurement": "Muscle %Injected Dose/g", "setting": "[2]; 5 min", "value": "0.19 ± 0.05", "unit": "%Injected Dose/g"}, {"measurement": "Pancreas %Injected Dose/g", "setting": "[2]; 5 min", "value": "0.63 ± 0.09", "unit": "%Injected Dose/g"}, {"measurement": "Spleen %Injected Dose/g", "setting": "[2]; 5 min", "value": "0.63 ± 0.09", "unit": "%Injected Dose/g"}, {"measurement": "Stomach %Injected Dose/g", "setting": "[2]; 5 min", "value": "0.72 ± 0.25", "unit": "%Injected Dose/g"}, {"measurement": "Urine % ID", "setting": "[2]; 5 min", "value": "0.09 ± 0.06", "unit": "% ID"}, {"measurement": "Blood %Injected Dose/g", "setting": "[2]; 60 min", "value": "0.14 ± 0.03", "unit": "%Injected Dose/g"}, {"measurement": "Brain %Injected Dose/g", "setting": "[2]; 60 min", "value": "0.03 ± 0.00", "unit": "%Injected Dose/g"}, {"measurement": "Heart %Injected Dose/g", "setting": "[2]; 60 min", "value": "0.13 ± 0.03", "unit": "%Injected Dose/g"}, {"measurement": "Intestines %Injected Dose/g", "setting": "[2]; 60 min", "value": "34.05 ± 2.05", "unit": "%Injected Dose/g"}, {"measurement": "Kidneys %Injected Dose/g", "setting": "[2]; 60 min", "value": "1.28 ± 0.17", "unit": "%Injected Dose/g"}, {"measurement": "Liver %Injected Dose/g", "setting": "[2]; 60 min", "value": "1.24 ± 0.24", "unit": "%Injected Dose/g"}, {"measurement": "Lungs %Injected Dose/g", "setting": "[2]; 60 min", "value": "0.13 ± 0.03", "unit": "%Injected Dose/g"}, {"measurement": "Muscle %Injected Dose/g", "setting": "[2]; 60 min", "value": "0.08 ± 0.01", "unit": "%Injected Dose/g"}, {"measurement": "Pancreas %Injected Dose/g", "setting": "[2]; 60 min", "value": "0.10 ± 0.03", "unit": "%Injected Dose/g"}, {"measurement": "Spleen %Injected Dose/g", "setting": "[2]; 60 min", "value": "0.11 ± 0.01", "unit": "%Injected Dose/g"}, {"measurement": "Stomach %Injected Dose/g", "setting": "[2]; 60 min", "value": "0.64 ± 0.27", "unit": "%Injected Dose/g"}, {"measurement": "Urine % ID", "setting": "[2]; 60 min", "value": "1.02 ± 0.17", "unit": "% ID"}, {"measurement": "Blood %Injected Dose/g", "setting": "[2]; 240 min", "value": "0.08 ± 0.01", "unit": "%Injected Dose/g"}, {"measurement": "Brain %Injected Dose/g", "setting": "[2]; 240 min", "value": "0.02 ± 0.00", "unit": "%Injected Dose/g"}, {"measurement": "Heart %Injected Dose/g", "setting": "[2]; 240 min", "value": "0.05 ± 0.01", "unit": "%Injected Dose/g"}, {"measurement": "Intestines %Injected Dose/g", "setting": "[2]; 240 min", "value": "37.28 ± 3.50", "unit": "%Injected Dose/g"}, {"measurement": "Kidneys %Injected Dose/g", "setting": "[2]; 240 min", "value": "0.06 ± 0.01", "unit": "%Injected Dose/g"}, {"measurement": "Liver %Injected Dose/g", "setting": "[2]; 240 min", "value": "0.39 ± 0.08", "unit": "%Injected Dose/g"}, {"measurement": "Lungs %Injected Dose/g", "setting": "[2]; 240 min", "value": "0.08 ± 0.01", "unit": "%Injected Dose/g"}, {"measurement": "Muscle %Injected Dose/g", "setting": "[2]; 240 min", "value": "0.07 ± 0.07", "unit": "%Injected Dose/g"}, {"measurement": "Pancreas %Injected Dose/g", "setting": "[2]; 240 min", "value": "0.09 ± 0.00", "unit": "%Injected Dose/g"}, {"measurement": "Spleen %Injected Dose/g", "setting": "[2]; 240 min", "value": "0.07 ± 0.02", "unit": "%Injected Dose/g"}, {"measurement": "Stomach %Injected Dose/g", "setting": "[2]; 240 min", "value": "0.60 ± 0.18", "unit": "%Injected Dose/g"}, {"measurement": "Urine % ID", "setting": "[2]; 240 min", "value": "1.33 ± 0.14", "unit": "% ID"}]}]}
